Results reported in patent US11427615B2, “Peptide compound and application thereof, and composition containing peptide compound” (XDCEXPLORER (SHANGHAI) CO., LTD., priority 2017, dated 2022).
“And” between values parts separate entries of the source, which are not always exact repeats. Equal values may be shown once. Starred links: 1 amine or outer side, 2 acyl side, 3 side chain; linkers in the order of their positions; H or OH if unused. Non-standard residues stand in square brackets, D forms with d. Residues, ends and D or L forms follow the SMILES beside them. *: point of attachment. X10 = CNC(=N)NCCC[C@H](NC(=O)[C@H](CC(C)C)NC(=O)NCN*)C(=O)N[C@@H](Cc1c[nH]c2ccccc12)C(N)=O; dPhe(2,4-Cl2) = N[C@H](Cc1ccc(Cl)cc1Cl)C(=O)O; X7 = c1ccc2c(C[C@H](N*)c3nn[nH]n3)c[nH]c2c1; Pro(4,4-F2) = O=C(O)[C@@H]1CC(F)(F)CN1; dPhe(4-F) = N[C@H](Cc1ccc(F)cc1)C(=O)O; azaPhe = O=C(N(Cc1ccccc1)N[*:1])[*:2]; Arg(Me) = CNC(=N)NCCC[C@H](N)C(=O)O; Hyp = O=C(O)[C@@H]1C[C@@H](O)CN1; X15 = CN(NC(=O)[*:2])[*:1]; Pip = O=C(O)[C@@H]1CCCCN1; Ac6c = NC1(C(=O)O)CCCCC1; azaGly = NNC(=O)O

Molecular target: T1, human kiss1 receptor (GPR54) (Homo sapiens, UniProt Q969F8)
T1 construct: host or cells: NFAT-bla CHO-K1 cells (Chinese hamster ovary), purchased recombinant cell line
Assay: Kiss1 receptor (GPR54) binding activity of agonists, FRET detection in NFAT-bla CHO-K1 cells
Format: cell-based
Settings: NFAT-bla CHO-K1 cells that express human kiss1 receptor (GPR54); FRET; cells cultured with compound for 4 hours; read-out: GPR54 EC50/nM

T1 sequence (Q969F8 whole entry): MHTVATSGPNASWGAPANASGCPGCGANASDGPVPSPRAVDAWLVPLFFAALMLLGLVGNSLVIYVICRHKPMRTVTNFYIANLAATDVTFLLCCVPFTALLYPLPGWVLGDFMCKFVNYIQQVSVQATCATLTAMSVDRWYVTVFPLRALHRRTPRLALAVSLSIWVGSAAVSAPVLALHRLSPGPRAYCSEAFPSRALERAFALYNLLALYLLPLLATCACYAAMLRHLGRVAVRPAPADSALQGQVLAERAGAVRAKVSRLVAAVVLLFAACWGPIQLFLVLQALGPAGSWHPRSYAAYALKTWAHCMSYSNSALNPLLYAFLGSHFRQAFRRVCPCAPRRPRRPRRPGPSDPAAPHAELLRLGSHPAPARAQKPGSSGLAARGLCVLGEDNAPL

Row | EC50 [nM] | Compound
1 | 0.69 | CNC(=N)NCCC[C@H](NC(=O)[C@H](CC(C)C)NC(=O)C1(NC(=O)[C@H](Cc2ccccc2)NC(=O)[C@@H](NC(=O)[C@H](CC(N)=O)NC(=O)C2(NC(=O)[C@@H](Cc3ccc(O)cc3)NC(C)=O)CCCCC2)[C@@H](C)O)CCCCC1)C(=O)N[C@@H](Cc1c[nH]c2ccccc12)C(N)=O [YA-243, Ac-D-Tyr-A6c-Asn-Thr-Phe-A6c-Leu-Arg(Me)-Trp-NH2] (Ac-[dY][Ac6c]NTF[Ac6c]L[Arg(Me)]W-NH2)

Same assay, conditions: Preliminary measurement data (GPR54) EC50, nM), GPR54; measured according to the method of effect Embodiment 1; preliminary data

Row | Compound | EC50 [nM]
2 | CNC(=N)NCCC[C@H](NC(=O)[C@H](CC(C)C)NC(=O)CNC(=O)N(Cc1ccccc1)NC(=O)[C@@H](NC(=O)[C@H](CC(N)=O)NC(=O)[C@@H]1CCCCN1C(=O)[C@@H](Cc1ccc(Cl)cc1Cl)NC(C)=O)[C@@H](C)O)C(=O)N[C@@H](Cc1c[nH]c2ccccc12)C(N)=O [YA-241, Ac-[D-Phe(2,4-diCl)]—(S-Pip)-Asn-Thr-azaPhe-Gly-Leu-Arg(Me)-Trp-NH2] (Ac-[dPhe(2,4-Cl2)][Pip]NT[azaPhe]GL[Arg(Me)]W-NH2) | 0.93

Same assay, conditions: human kiss1 receptor (GPR54), NFAT-bla CHO-K1 cells, FRET; preliminary data; method of effect Embodiment 1; read-out: Preliminary measurement data (GPR54) EC50

Row | Compound | EC50
3 | CNC(=N)NCCC[C@H](NC(=O)[C@H](CC(C)C)NC(=O)C1(NC(=O)[C@H](Cc2ccccc2)NC(=O)[C@@H](NC(=O)[C@H](CC(N)=O)NC(=O)C2(NC(=O)[C@@H](Cc3ccc(F)cc3)NC(C)=O)CCCCC2)[C@@H](C)O)CCCCC1)C(=O)N[C@@H](Cc1c[nH]c2ccccc12)C(N)=O [YA-244, Ac-[D-Phe(4-F)]-A6c-Asn-Thr-Phe-A6c-Leu-Arg(Me)-Trp-NH2] (Ac-[dPhe(4-F)][Ac6c]NTF[Ac6c]L[Arg(Me)]W-NH2; C-terminus assumed) | 1.17 nM
4 | CNC(=N)NCCC[C@H](NC(=O)[C@H](CC(C)C)NC(=O)[C@@H]1C[C@@H](O)CN1C(=O)[C@H](Cc1ccccc1)NC(=O)[C@@H](NC(=O)[C@H](CC(N)=O)NC(=O)C1(NC(=O)[C@@H](Cc2ccc(O)cc2)NC(C)=O)CCCCC1)[C@@H](C)O)C(=O)N[C@@H](Cc1c[nH]c2ccccc12)C(N)=O [YA-245, Ac-(D-Tyr)-A6c-Asn-Thr-Phe-Hyp-Leu-Arg(Me)-Trp-NH2] (Ac-[dY][Ac6c]NTF[Hyp]L[Arg(Me)]W-NH2) | 26 nM
5 | CNC(=N)NCCC[C@H](NC(=O)[C@H](CC(C)C)NC(=O)NNC(=O)[C@H](Cc1ccccc1)NC(=O)[C@@H](NC(=O)[C@H](CC(N)=O)NC(=O)[C@@H]1C[C@@H](O)CN1C(=O)[C@@H](Cc1ccc(O)cc1)NC(C)=O)[C@@H](C)O)C(=O)N[C@@H](Cc1c[nH]c2ccccc12)C(=O)O [YA-246, Ac-(D-Tyr)-Hyp-Asn-Thr-Phe-azaGly-Leu-Arg(Me)-Trp-OH] (Ac-[dY][Hyp]NTF[azaGly]L[Arg(Me)]W-OH) | 2.86 nM

The next lines start with the values.

Row | EC50 | Compound
6 | 11 nM | CNC(=N)NCCC[C@H](NC(=O)[C@H](CC(C)C)NC(=O)NN(C)C(=O)[C@H](Cc1ccccc1)NC(=O)[C@@H](NC(=O)[C@H](CC(N)=O)NC(=O)[C@@H]1C[C@@H](O)CN1C(=O)[C@@H](Cc1ccc(O)cc1)NC(C)=O)[C@@H](C)O)C(=O)N[C@@H](Cc1c[nH]c2ccccc12)C(N)=O [YA-247, Ac-(D-Tyr)-Hyp-Asn-Thr-Phe-azaNMeGly-Leu-Arg(Me)-Trp-NH2] (Ac-[dY][Hyp]NTF[X15]L[Arg(Me)]W-NH2)
7 | 7.5 nM and 15.4 nM | CNC(=N)NCCC[C@H](NC(=O)[C@H](CC(C)C)NC(=O)NNC(=O)[C@H](Cc1ccccc1)NC(=O)[C@@H](NC(=O)[C@H](CC(N)=O)NC(=O)[C@@H]1C[C@@H](O)CN1C(=O)[C@@H](Cc1ccc(O)cc1)NC(C)=O)[C@@H](C)O)C(=O)N[C@@H](Cc1c[nH]c2ccccc12)c1nn[nH]n1 [YA-250, Ac-(D-Tyr)-Hyp-Asn-Thr-Phe-azaG-Leu-Arg(Me)-Trp-2H-tetrazol-5-yl] (Ac-[dY][Hyp]NTF[azaGly]L[Arg(Me)]-X7)
8 | 97.8 nM | CNC(=N)NCCC[C@H](NC(=O)[C@H](CC(C)C)NC(=O)C1(NC(=O)[C@H](Cc2ccccc2)NC(=O)[C@@H](NC(=O)[C@H](CC(N)=O)NC(=O)[C@@H]2CC(F)(F)CN2C(=O)[C@@H](Cc2ccc(Cl)cc2Cl)NC(C)=O)[C@@H](C)O)CCCCC1)C(=O)N[C@@H](Cc1c[nH]c2ccccc12)C(=O)NC [YA-253, Ac-D-Phe(2,4-DiCl)-DiFluorPro-Asn-Thr-Phe-A6c-Leu-Arg(Me)-Trp-NHMe] (Ac-[dPhe(2,4-Cl2)][Pro(4,4-F2)]NTF[Ac6c]L[Arg(Me)]W-NHMe)
9 | 2.6 nM | CNC(=N)NCCC[C@H](NC(=O)[C@H](CC(C)C)NC(=O)NCNC(=O)[C@H](Cc1ccccc1)NC(=O)[C@@H](NC(=O)[C@H](CC(N)=O)NC(=O)[C@@H]1C[C@@H](O)CN1C(=O)[C@@H](Cc1ccc(O)cc1)NC(C)=O)[C@@H](C)O)C(=O)N[C@@H](Cc1c[nH]c2ccccc12)C(N)=O [YA-256, Ac-(D-Tyr)-Hyp-Asn-Thr-Phe-ψ(NH—CO—NH)Gly-Leu-Arg(Me)-Trp-NH2] (Ac-[dY][Hyp]NTF-X10)
10 | 3.2 nM | CNC(=N)NCCC[C@H](NC(=O)[C@H](CC(C)C)NC(=O)C1(NC(=O)[C@H](Cc2ccccc2)NC(=O)[C@@H](NC(=O)[C@H](CC(N)=O)NC(=O)C2(NC(=O)[C@@H](Cc3ccc(Cl)cc3Cl)NC(C)=O)CCCCC2)[C@@H](C)O)CCCCC1)C(=O)N[C@@H](Cc1c[nH]c2ccccc12)C(N)=O [YA-259, Ac-D-Phe(2,4-DiCl)-A6c-Asn-Thr-Phe-Abc-Leu-Arg(Me)-Trp-NH2] (Ac-[dPhe(2,4-Cl2)][Ac6c]NTF[Ac6c]L[Arg(Me)]W-NH2)
